Measurements: paper PMC5974779, “Prediction of Drug-Induced Hepatotoxicity Using Long-Term Stable Primary Hepatic 3D Spheroid Cultures in Chemically Defined Conditions” (Toxicological Sciences, 2018)
Where two headings read alike, the source gives them in different places.

Tests used:
[1] = tested on: primary human hepatocytes (PHH) 3D spheroids
[2] = tested on: PHH spheroids (hanging-drop); settings: cited from earlier work
in vitro = settings: human
[3] = ref DrugBank and Prescribers' Digital Reference database; cited from earlier work
clinical DILI in man = settings: cited from earlier work
PHH 2D sandwich cultures = settings: cited from earlier work; for hepatotoxicity detection in 2D sandwich cultures of PHH: 100× cmax, 24 h, high content imaging; for hepatotoxicity detection in 2D sandwich cultures of PHH / reactive oxygen species levels in 2D sandwich cultures of PHH: ref Xu et al., 2008
[4] = tested on: PHH micropatterned cocultures with murine embryonic fibroblasts; settings: cited from earlier work
[5] = cited from earlier work
[6] = PHH hanging-drop spheroids, 100x Cmax, ref Proctor 2017
[7] = PHH 2D sandwich cultures, 100x Cmax, ref Xu 2008
[8] = micropatterned cocultures, 100x Cmax, ref Khetani 2013
[9] = clinical DILI classification in man (POS/NEG)
[10] = clinical DILI classification used in this study, Supplementary Table 2, ref Chen et al., 2011, Guo et al., 2005, O'Brien et al., 2006, Sakatis et al., 2012, Suzuki et al., 2010, Xu et al., 2008
[11] = clinical DILI classification, Supplementary Table 1, ref Chen et al., 2011, Guo et al., 2005, O'Brien et al., 2006, Sakatis et al., 2012, Suzuki et al., 2010, Xu et al., 2008
[12] = therapeutic total cmax, ref PMID

SMILES | Chemically defined spheroids (this study) 20x [1] | Hanging-drop spheroids (Proctor 2017) 100x [2, 6] | Extent of hepatic metabolism [3] | Classified as (clinical DILI in man; in vivo) | Clinical DILI class (panel heading of Figure 4) (clinical DILI in man; in vivo) | DILI in vivo (clinical DILI in man; in vivo) | FDA (0-8) (clinical DILI in man; in vivo) | FDA (Severity) (clinical DILI in man; in vivo) | Sakatis et al. (2012) (clinical DILI in man; in vivo) | Suzuki et al. (2010) (clinical DILI in man; in vivo) | Type of DILI (clinical DILI in man; in vivo) | 2Dsw (Xu 2008) 100x (PHH 2D sandwich cultures; [7]) | MPCC (Khetani 2013) 100x [4, 8] | Cmax [5, 12] [µM] | Xu et al. (2008) (clinical DILI in man; in vivo) | further results
CC(=O)N1CCN(c2ccc(OCC3COC(Cn4ccnc4)(c4ccc(Cl)cc4Cl)O3)cc2)CC1 (stereo not drawn) [Ketoconazole] | Positive | Positive | Extensive | POS | Severe DILI | POS | 8 | most DILI concern | Hepatotoxic | 2 | Hepatocellular injury or Cholestatic injury | – | – | – | – | viability at 14 days, 1 × cmax (in vitro): < 10%; Guo et al. (2005) (clinical DILI in man; in vivo): 3; O'Brien et al. (2003) (clinical DILI in man; in vivo): Severely
CNCCC=C1c2ccccc2CCc2ccccc21 [Nortriptyline] | Positive | – | Extensive | – | – | – | – | – | – | – | – | Negative | Positive | 1.5 | – | FDA (Severity) (clinical DILI in man; FDA drug labeling DILI concern, ref Chen et al., 2011): most DILI concern; FDA (0-8) (clinical DILI in man; FDA drug labeling DILI score, ref Chen et al., 2011): 8; DILI in vivo (clinical DILI in man; [9]): POS; Classified as (clinical DILI in man; [10]): POS; DILI in vivo (clinical DILI in man; [11]): POS; Xu et al. (2008) (clinical DILI in man; clinical DILI classification, ref Xu et al. (2008)): Positive; Type of DILI (clinical DILI in man; reported pattern of liver damage, Supplementary Table 2, ref literature): Hepatocellular injury
CN1C(C(=O)Nc2ccccn2)=C(O)c2ccccc2S1(=O)=O [Piroxicam] | Negative | – | Extensive | POS | High DILI concern | POS | 3 | less DILI concern | Hepatotoxic | 1 | Hepatocellular injury, Cholestatic injury or Mixed hepatitis | Negative | Negative | 5.13 | Positive | Guo et al. (2005) (clinical DILI in man; in vivo): 2; O'Brien et al. (2003) (clinical DILI in man; in vivo): Severely
CC(c1cc2ccccc2s1)N(O)C(N)=O (stereo not drawn) [Zileuton] | Negative | Negative | Extensive | POS | High DILI concern | POS | 5 | most DILI concern | Hepatotoxic | – | Hepatocellular injury | Positive | – | 13.1 | Positive | hepatotoxicity evaluation in CD-spheroids [1]: predicted to be DILI negative; hepatotoxicity detection in 2D sandwich cultures of PHH (PHH 2D sandwich cultures): flagged as hepatotoxic; reactive oxygen species levels in 2D sandwich cultures of PHH (PHH 2D sandwich cultures): only slight increases in reactive oxygen species levels; O'Brien et al. (2003) (clinical DILI in man; in vivo): Severely
CN(C)CCCN1c2ccccc2CCc2ccccc21 [Imipramine] | – | Positive | Extensive | – | – | – | – | – | – | – | – | Negative | Positive | – | – | hepatotoxicity detection in 2D sandwich cultures of PHH (PHH 2D sandwich cultures): liver toxicity was not recognized
O=C1CC2(CCCC2)CC(=O)N1CCCCN1CCN(c2ncccn2)CC1 [Buspirone] | Negative | Negative | – | – | – | – | – | – | – | – | – | Negative | Negative | – | – | hepatotoxicity evaluation in CD-spheroids [1]: not hepatotoxic
CC(CCc1ccccc1)NCC(O)c1ccc(O)c(C(N)=O)c1 (stereo not drawn) [Labetalol] | Negative | – | Extensive | POS | Severe DILI | POS | 8 | most DILI concern | Hepatotoxic | 3 | Hepatocellular injury | Positive | – | 2.68 | Positive | hepatotoxicity evaluation in CD-spheroids [1]: predicted to be DILI negative; hepatotoxicity detection in 2D sandwich cultures of PHH (PHH 2D sandwich cultures): flagged as hepatotoxic; reactive oxygen species levels in 2D sandwich cultures of PHH (PHH 2D sandwich cultures): only slight increases in reactive oxygen species levels; viability at 14 days, 20 × cmax (in vitro): > 100%; O'Brien et al. (2003) (clinical DILI in man; in vivo): Severely
CCN(CC)CC(=O)Nc1c(C)cccc1C [Lidocaine] | – | – | – | – | – | – | – | – | – | – | – | Negative | Positive | – | – | –
CC(=O)[C@H]1CC[C@H]2[C@@H]3CCC4=CC(=O)CC[C@]4(C)[C@H]3CC[C@]12C [Progesterone] | Negative | – | – | NEG | DILI negative | NEG | 2 | – | non-hepatotixic | 1 | Non-hepatotoxic | Negative | Negative | 0.193 | Positive | –
Cc1cccc(Nc2ccccc2C(=O)O)c1C [Mefenamic Acid] | Positive | – | Extensive | POS | Severe DILI | POS | 8 | – | Hepatotoxic | – | Hepatocellular injury | Positive | Positive | 26.9 | Positive | –
O=C(O)Cc1ccccc1Nc1c(Cl)cccc1Cl [Diclofenac] | Positive | Positive | – | – | – | – | – | – | – | – | – | Positive | Positive | – | – | –
O=c1n(CCCN2CCN(c3cccc(Cl)c3)CC2)nc2ccccn12 [Trazodone] | Positive | – | Extensive | POS | High DILI concern | POS | 5 | less DILI concern | – | – | Hepatocellular injury, Cholestatic injury or Mixed hepatitis | Positive | Positive | 5.1 | Positive | –
Cc1ccc(C(=O)c2cc(O)c(O)c([N+](=O)[O-])c2)cc1 [Tolcapone] | Positive | Positive | Extensive | POS | Severe DILI | POS | 8 | most DILI concern | – | 3 | Hepatocellular injury or Mixed hepatitis | – | – | 47.6 | – | viability at 14 days, 1 × cmax (in vitro): < 10%; Guo et al. (2005) (clinical DILI in man; in vivo): 3
Nc1c2c(nc3ccccc13)CCCC2 [Tacrine] | Negative | – | – | POS | High DILI concern | POS | – | – | – | – | Hepatocellular injury | – | – | – | – | Hanging-drop spheroids (Proctor 2017) 100x [2]: Negative; 2Dsw (Xu 2008) 100x (PHH 2D sandwich cultures): Negative; viability at 14 days, 20 × cmax (in vitro): > 100%; Cmax ([5]; human, in vivo): 0.07 µM
CNCCc1ccccn1 [Betahistine] | Negative | – | Moderate | – | – | – | – | – | – | – | – | Negative | Negative | 0.0037 | – | DILI in vivo (clinical DILI in man; [9]): POS; Classified as (clinical DILI in man; [10]): POS; DILI in vivo (clinical DILI in man; [11]): POS
C=C[C@H]1C[N@@]2CC[C@H]1C[C@H]2[C@H](O)c1ccnc2ccc(OC)cc12 [Quinine] | Positive | – | – | – | – | – | – | – | – | – | – | – | – | 9.25 | – | 2Dsw (Xu 2008) 100x (PHH 2D sandwich cultures): Positive; MPCC (Khetani 2013) 100x [4]: Positive
CNCCC(Oc1ccc(C(F)(F)F)cc1)c1ccccc1 (stereo not drawn) [Fluoxetine] | Negative | – | – | NEG | DILI negative | NEG | 3 | – | non-hepatotixic | 2 | Non-hepatotoxic | – | – | – | Negative | hepatotoxicity classification in hanging-drop PHH spheroids ([2]; 100× cmax, 2 weeks, ref Proctor et al., 2017): flagged as hepatotoxic; Hanging-drop spheroids (Proctor 2017) 100x [2]: Positive; 2Dsw (Xu 2008) 100x (PHH 2D sandwich cultures): Negative; MPCC (Khetani 2013) 100x [4]: Negative
COC1=CC(=O)C[C@@H](C)[C@]12Oc1c(Cl)c(OC)cc(OC)c1C2=O [Griseofulvin] | Negative | – | Extensive | – | – | – | – | – | – | – | – | – | – | 4.54 | – | viability at 14 days, 20 × cmax (in vitro): > 100%
